Patent publication US20100190778A1, “3,4-DIHYDROBENZO[1,2,3]THIADIAZINE-1,1-DIOXIDE DERIVATIVES, PROCESS FOR PREPARATION THEREOF, MEDICAMENTS CONTAINING SAID DERIVATIVES AND THEIR USE” (EGIS GYOGYSZERGYAR NYILVANOSAN MUKODO RESZVENTARSASAG, priority 2006, published 2010)

Columns and labels:
[1] = system: male Sprague-Dawley rats; test: elevated maze test in the rat (anxiolytic effect); format: in vivo; settings: per os, 60-min pretreatment, 5-min measurement, MED regarding time spent in the open arms and number of entries into the open arms
Procedure: Pharmacological activity of the compounds of the general Formula (I) has been evaluated in elevated maze test in the rat.
The tests were carried out according to the method of S. Fellow and coworkers (J. Neurosci. Methods. 1985, 14, 149-167). During the test, a wooden-floor cross elevated by 50 cm from the ground was used. The length and the width of the arms of the cross were 100 and 15 cm, respectively. Two opposite arms of the cross are fitted at the ends and both sides with black plexiglass wall of 40 cm height (closed arms). The central section of the cross measuring 15 by 15 cm is open. The other two opposite arms of the cross are not provided with walls (open arms).
The tests were carried out in male Sprague-Dawley rats weighing 200 to 220 g. After the 60-min pretreatment time (per os treatment), animals were placed in the center of the maze. During the 5-min measurement time, four variables were recorded: the time spent in the open arms; the time spent in the closed arms; the number of entries into the open arms; the number of entries into the closed arms.
Animals normally avoid the open and light parts of the maze, thereby spending little time therein only. The anxiolytic effect of the compounds of the general Formula (I) is indicated by the increase in the time spent (in seconds) in the open arms and/or by the increase in the number of the entries into the open compartments of the maze. The minimum effective dose (MED) was determined for each tested compounds regarding the time spent in the open arms and the number of entries into the open arms. During the test, the known anxiolytic compound I-methyl-5-phenyl-7-chloro-1,3-dihydro-2H-1,4-benzodiazepin-2-one (INN: diazepam) of the Formula (IV)
was used. Treatment of the animals was carried out orally with the doses 0.1, 0.3, 1.0, 3.0 for diazepam and 0.01, 0.1, 1.0 mg/kg for the compounds of the general Formula (I).

| Compound | MED (minimum effective dose), anxiolytic effect in elevated maze test [1] [mg/kg p.o.] | melting point [°C] |
| --- | --- | --- |
| CN1C(=O)CN=C(c2ccccc2)c2cc(Cl)ccc21 [Diazepam, I-methyl-5-phenyl-7-chloro-1,3-dihydro-2H-1,4-benzodiazepin-2-one, reference compound] | 1.00 | – |
| CC1NNS(=O)(=O)c2cc(Cl)ccc21 (stereo not shown) [Example 1, 7-chloro-4-methyl-3,4-dihydrobenzo[1,2,3]thiadiazine-1,1-dioxide] | 0.3 | 155 to 156 |
| CC1NNS(=O)(=O)c2c1ccc(Cl)c2Cl (stereo not shown) [Example 3, 7,8-Dichloro-4-methyl-3,4-dihydrobenzo[1,2,3]thiadiazine-1,1-dioxide] | 0.01 | 261 to 263 |
| Cc1cc(Cl)c(Cl)c2c1C(C)NNS2(=O)=O (stereo not shown) [Example 5, 7,8-Dichloro-4,5-dimethyl-3,4-dihydrobenzo[1,2,3]thiadiazine-1,1-dioxide] | 0.01 | 197 to 199 |
| CC1NN(C)S(=O)(=O)c2c1ccc(Cl)c2Cl (stereo not shown) [Example 16, 7,8-Dichloro-2,4-dimethyl-3,4-dihydrobenzo[1,2,3]thiadiazine-1,1-dioxide] | 0.01 | 134 to 135 |
| CN1NCc2ccc(Cl)c(Cl)c2S1(=O)=O [Example 20, 7,8-Dichloro-2-methyl-3,4-dihydrobenzo[1,2,3]thiadiazine-1,1-dioxide] | 0.01 | 124 to 125 |
| CCN1Cc2ccccc2S(=O)(=O)N1C [Example 42, 3-Ethyl-2-methyl-3,4-dihydrobenzo[1,2,3]thiadiazine-1,1-dioxide] | – | 140 to 142 |
| CC1c2ccc(Cl)c(Cl)c2S(=O)(=O)N(C)N1C (stereo not shown) [Example 43, 7,8-Dichloro-2,3,4-trimethyl-3,4-dihydrobenzo[1,2,3]thiadiazine-1,1-dioxide] | – | 135 to 136 |
